Assay [1] deals with Atypical kinase COQ8A, mitochondrial (Homo sapiens, UniProt Q8NI60).
In assay [2] the target is BMP-2-inducible protein kinase (Homo sapiens, UniProt Q9NSY1).
Assay [3] addresses Dual specificity protein kinase CLK1 (Homo sapiens, UniProt P49759).
For assay [4], the target named is DnaJ homolog subfamily A member 1 (Homo sapiens, UniProt P31689).
The target in assay [5] is Ephrin type-A receptor 5 (Homo sapiens, UniProt P54756).
The target of assay [6] is T1, Electron transfer flavoprotein subunit beta (Homo sapiens, UniProt P38117).
T1 sequence (P38117 whole entry): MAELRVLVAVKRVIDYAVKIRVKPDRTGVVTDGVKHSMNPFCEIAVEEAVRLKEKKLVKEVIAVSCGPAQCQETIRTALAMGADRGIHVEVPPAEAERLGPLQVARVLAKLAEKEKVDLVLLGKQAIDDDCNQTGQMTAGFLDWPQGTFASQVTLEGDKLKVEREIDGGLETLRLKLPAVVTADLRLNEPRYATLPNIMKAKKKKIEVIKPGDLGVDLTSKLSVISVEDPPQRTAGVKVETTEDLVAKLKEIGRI

For assay [7], the target named is T2, Membrane-associated tyrosine- and threonine-specific cdc2-inhibitory kinase (Homo sapiens, UniProt Q99640).
T2 sequence (Q99640 whole entry): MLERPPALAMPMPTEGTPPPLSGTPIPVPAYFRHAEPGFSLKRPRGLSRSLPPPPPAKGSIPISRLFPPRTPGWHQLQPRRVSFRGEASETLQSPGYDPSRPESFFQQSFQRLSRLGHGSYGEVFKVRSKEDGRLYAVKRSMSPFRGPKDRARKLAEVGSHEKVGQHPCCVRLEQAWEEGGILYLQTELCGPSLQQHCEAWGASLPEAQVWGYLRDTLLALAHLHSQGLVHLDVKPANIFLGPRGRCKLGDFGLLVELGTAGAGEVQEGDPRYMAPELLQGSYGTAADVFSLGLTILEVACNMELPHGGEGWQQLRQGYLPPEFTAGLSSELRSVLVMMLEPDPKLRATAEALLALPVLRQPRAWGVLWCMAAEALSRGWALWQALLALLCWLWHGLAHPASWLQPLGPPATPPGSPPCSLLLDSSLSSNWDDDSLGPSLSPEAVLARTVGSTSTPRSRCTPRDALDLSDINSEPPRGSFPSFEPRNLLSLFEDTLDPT

Assay [8] concerns the target Ribosomal protein S6 kinase alpha-6 (Homo sapiens, UniProt Q9UK32).
Assay [9] concerns the target Serine/threonine-protein kinase 10 (Homo sapiens, UniProt O94804).
Assay [10] has as its target T3, Ephrin type-B receptor 6 (Homo sapiens, UniProt O15197).
T3 sequence (O15197 whole entry): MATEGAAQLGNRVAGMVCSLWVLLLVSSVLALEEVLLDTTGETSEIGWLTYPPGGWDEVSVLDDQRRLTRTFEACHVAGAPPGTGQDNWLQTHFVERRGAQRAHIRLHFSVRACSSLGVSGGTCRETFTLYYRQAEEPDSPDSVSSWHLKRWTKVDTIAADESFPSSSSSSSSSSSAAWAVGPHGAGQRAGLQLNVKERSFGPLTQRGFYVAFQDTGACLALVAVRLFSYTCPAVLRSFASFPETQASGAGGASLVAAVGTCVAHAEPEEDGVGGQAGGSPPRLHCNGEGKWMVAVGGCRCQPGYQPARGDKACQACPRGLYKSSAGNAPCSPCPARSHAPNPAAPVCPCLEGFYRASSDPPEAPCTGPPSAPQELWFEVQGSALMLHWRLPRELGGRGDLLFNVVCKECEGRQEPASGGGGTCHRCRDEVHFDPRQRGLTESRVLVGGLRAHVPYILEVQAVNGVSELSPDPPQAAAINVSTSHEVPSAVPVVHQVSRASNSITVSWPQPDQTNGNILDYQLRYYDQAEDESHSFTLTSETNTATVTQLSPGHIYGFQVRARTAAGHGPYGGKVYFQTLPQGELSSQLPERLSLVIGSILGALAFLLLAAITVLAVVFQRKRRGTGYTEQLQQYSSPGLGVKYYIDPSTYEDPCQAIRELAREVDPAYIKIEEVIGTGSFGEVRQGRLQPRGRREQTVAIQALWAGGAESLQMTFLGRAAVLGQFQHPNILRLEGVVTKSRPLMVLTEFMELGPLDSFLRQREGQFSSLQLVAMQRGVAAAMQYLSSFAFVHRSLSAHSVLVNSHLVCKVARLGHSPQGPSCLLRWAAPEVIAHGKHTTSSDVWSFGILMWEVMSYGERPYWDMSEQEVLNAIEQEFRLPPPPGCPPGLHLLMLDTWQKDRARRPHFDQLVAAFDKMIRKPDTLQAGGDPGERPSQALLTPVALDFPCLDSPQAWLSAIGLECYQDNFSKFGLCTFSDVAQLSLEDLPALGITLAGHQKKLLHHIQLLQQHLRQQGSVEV

The target of assay [11] is Dual specificity mitogen-activated protein kinase kinase 2 (Homo sapiens, UniProt P36507).
Assay [12] deals with T4, Dual specificity mitogen-activated protein kinase kinase 3 (Homo sapiens, UniProt P46734).
T4 sequence (P46734 whole entry): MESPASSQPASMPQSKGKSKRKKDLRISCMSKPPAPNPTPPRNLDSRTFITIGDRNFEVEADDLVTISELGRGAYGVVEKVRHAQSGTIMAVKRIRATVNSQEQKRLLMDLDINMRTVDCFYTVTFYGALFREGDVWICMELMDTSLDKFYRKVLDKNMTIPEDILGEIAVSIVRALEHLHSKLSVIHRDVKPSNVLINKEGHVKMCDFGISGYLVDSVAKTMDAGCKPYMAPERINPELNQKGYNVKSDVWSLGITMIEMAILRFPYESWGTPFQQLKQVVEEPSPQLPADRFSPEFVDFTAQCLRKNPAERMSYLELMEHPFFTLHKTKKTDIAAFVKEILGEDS

For assay [13], the target named is RAC-alpha serine/threonine-protein kinase (Homo sapiens, UniProt P31749).
Sequence of RAC-alpha serine/threonine-protein kinase (P31749 whole entry): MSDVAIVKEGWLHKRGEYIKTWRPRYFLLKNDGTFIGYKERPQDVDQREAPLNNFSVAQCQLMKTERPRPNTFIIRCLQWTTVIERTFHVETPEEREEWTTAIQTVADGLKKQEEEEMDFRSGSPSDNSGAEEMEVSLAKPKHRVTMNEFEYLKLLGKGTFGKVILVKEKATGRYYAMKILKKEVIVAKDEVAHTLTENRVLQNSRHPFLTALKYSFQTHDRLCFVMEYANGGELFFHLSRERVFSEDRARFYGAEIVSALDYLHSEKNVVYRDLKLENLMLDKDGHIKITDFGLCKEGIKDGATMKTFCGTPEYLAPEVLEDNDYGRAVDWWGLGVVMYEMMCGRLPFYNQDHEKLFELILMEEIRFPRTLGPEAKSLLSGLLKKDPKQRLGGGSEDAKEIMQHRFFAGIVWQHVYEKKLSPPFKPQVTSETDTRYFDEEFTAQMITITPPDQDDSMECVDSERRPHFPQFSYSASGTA
The target in assay [14] is Glycogen synthase kinase-3 alpha (Homo sapiens, UniProt P49840).
Sequence of Glycogen synthase kinase-3 alpha (P49840 whole entry): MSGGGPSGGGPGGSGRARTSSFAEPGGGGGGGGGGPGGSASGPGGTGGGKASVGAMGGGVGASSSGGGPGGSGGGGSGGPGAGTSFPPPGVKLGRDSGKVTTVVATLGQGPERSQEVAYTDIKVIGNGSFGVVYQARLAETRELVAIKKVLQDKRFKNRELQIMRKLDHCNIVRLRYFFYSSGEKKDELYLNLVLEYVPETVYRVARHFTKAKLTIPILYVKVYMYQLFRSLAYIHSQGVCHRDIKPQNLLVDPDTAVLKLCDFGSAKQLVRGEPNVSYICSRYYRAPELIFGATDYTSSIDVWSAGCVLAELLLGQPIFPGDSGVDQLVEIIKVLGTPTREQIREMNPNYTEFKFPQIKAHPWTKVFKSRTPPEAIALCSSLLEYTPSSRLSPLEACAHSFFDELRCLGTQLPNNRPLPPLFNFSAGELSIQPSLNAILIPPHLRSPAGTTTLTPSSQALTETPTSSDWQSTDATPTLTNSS
In assay [15] the target is Interleukin-1 receptor-associated kinase 1 (Homo sapiens, UniProt P51617).
Sequence of Interleukin-1 receptor-associated kinase 1 (P51617 whole entry): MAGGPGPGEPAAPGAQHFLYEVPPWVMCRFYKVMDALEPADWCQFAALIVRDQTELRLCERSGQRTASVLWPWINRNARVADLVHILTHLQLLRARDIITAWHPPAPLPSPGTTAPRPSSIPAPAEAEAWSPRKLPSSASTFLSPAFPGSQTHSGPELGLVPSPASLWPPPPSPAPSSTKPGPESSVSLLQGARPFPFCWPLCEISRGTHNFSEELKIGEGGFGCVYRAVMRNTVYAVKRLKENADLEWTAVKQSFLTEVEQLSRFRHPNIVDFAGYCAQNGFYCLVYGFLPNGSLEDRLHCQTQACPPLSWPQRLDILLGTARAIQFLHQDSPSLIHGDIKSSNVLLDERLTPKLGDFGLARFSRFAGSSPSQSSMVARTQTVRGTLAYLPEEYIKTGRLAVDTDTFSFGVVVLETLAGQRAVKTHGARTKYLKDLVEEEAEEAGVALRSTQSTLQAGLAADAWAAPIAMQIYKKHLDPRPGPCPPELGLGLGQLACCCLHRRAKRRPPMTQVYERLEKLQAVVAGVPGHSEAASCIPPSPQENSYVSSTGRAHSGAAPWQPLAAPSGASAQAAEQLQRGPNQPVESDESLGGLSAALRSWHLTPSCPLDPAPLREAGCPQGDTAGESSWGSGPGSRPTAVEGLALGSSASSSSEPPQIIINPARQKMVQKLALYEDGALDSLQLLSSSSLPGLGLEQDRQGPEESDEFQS
In assay [16] the target is MAP kinase-activated protein kinase 2 (Homo sapiens, UniProt P49137).

From ChEMBL document CHEMBL3991601, “The target landscape of clinical kinase drugs” (Science, 2017) come the findings set out here.

Activity calls are given as the source filed them. For most assays here, no stated cut-off is given here; in the data, actives have a measured Kd and inactives only a lower limit.

Sequence of Dual specificity protein kinase CLK1 (P49759 whole entry): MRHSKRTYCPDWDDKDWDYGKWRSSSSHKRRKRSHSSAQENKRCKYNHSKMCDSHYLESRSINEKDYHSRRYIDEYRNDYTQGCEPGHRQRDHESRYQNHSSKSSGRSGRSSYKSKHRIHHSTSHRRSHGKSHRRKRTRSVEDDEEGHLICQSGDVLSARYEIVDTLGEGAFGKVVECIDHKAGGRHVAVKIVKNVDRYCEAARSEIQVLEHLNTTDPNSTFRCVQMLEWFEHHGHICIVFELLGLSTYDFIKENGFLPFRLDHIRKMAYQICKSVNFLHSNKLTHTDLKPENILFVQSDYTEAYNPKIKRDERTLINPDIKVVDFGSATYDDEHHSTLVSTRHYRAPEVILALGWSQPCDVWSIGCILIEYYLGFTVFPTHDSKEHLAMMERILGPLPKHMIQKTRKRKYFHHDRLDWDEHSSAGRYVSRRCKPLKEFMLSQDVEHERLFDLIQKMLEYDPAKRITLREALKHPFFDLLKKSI
Sequence of DnaJ homolog subfamily A member 1 (P31689 whole entry): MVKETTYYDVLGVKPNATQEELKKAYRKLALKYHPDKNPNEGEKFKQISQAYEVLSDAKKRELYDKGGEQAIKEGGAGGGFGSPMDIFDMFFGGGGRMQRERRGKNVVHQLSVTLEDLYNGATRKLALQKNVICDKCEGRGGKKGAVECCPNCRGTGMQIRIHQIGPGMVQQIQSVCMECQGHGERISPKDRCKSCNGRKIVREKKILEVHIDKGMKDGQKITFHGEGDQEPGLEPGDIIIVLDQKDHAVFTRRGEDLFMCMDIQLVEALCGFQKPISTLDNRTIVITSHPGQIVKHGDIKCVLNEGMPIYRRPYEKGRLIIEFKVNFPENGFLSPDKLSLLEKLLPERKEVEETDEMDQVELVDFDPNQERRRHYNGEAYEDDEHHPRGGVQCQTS
Sequence of Serine/threonine-protein kinase 10 (O94804 whole entry): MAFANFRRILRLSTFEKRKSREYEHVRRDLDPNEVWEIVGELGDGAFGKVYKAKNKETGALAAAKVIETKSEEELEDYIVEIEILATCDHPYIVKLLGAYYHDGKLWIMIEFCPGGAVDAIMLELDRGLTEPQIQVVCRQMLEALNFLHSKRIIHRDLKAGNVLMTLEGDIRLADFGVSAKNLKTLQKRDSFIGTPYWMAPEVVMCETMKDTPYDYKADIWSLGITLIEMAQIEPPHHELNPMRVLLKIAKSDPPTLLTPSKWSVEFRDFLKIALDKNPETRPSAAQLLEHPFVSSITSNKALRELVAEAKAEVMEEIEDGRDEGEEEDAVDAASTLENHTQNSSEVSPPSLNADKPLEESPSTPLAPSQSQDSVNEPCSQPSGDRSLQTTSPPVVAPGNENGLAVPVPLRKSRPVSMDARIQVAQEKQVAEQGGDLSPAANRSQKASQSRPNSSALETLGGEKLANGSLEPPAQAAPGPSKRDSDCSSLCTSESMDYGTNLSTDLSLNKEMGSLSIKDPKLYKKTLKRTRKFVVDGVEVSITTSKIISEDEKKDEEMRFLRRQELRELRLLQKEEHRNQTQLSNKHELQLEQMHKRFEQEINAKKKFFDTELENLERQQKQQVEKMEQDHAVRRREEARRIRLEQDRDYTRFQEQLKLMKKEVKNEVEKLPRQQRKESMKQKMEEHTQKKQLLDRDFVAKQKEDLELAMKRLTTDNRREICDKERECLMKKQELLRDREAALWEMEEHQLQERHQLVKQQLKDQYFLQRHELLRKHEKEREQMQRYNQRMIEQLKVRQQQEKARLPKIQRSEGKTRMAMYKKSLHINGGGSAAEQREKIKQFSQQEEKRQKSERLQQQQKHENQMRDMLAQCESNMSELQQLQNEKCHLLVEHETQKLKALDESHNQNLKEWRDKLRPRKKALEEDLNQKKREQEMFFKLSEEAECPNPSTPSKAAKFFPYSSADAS
Sequence of BMP-2-inducible protein kinase (Q9NSY1 whole entry): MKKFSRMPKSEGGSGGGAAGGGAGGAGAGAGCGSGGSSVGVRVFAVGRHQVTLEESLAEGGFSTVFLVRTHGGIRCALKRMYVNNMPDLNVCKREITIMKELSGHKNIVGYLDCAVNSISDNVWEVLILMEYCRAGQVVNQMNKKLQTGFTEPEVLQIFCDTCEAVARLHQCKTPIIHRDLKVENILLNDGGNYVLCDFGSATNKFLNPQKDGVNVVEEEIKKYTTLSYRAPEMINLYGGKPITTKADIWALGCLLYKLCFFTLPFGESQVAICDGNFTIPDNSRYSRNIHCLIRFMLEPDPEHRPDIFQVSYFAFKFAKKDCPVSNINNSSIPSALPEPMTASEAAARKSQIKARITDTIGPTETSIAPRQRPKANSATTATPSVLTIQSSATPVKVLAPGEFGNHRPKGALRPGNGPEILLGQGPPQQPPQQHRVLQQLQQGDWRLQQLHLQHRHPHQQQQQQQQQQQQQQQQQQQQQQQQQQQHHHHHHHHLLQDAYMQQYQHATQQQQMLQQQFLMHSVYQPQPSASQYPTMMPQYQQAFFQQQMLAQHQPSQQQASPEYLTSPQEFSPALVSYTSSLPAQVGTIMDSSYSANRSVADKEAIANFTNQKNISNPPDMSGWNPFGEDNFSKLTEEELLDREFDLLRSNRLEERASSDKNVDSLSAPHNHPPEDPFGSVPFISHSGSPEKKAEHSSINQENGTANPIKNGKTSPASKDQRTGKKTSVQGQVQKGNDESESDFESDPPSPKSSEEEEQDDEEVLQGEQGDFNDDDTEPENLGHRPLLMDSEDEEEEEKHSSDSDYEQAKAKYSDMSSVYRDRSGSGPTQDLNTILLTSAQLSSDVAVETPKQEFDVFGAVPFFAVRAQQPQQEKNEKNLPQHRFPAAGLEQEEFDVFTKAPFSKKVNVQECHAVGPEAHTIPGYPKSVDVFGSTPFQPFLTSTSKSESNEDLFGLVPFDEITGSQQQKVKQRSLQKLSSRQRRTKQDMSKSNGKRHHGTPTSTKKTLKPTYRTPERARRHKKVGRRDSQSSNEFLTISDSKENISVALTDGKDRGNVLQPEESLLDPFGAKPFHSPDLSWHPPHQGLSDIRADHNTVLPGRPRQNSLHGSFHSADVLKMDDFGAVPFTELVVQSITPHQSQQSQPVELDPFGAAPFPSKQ

Turning to `O=C(Nc1cccc(Cl)c1)Nc1ncc(CCNc2ncnc3ccsc23)s1` [SNS-314], the Kd in assay [1], in assay [2], in [3], in assay [4], in assay [5] and in assay [6] was > 30 µM (inactive) in each case. The Kd in assay [7], in assay [8] and in assay [9] was > 30 µM (inactive) each time.
For `CN1CCN(c2ccc3nc(-c4c(N)c5c(F)cccc5[nH]c4=O)[nH]c3c2)CC1` [DOVITINIB], the Kd in assay [4] and in assay [6] was > 30 µM (inactive) in each case.
On to `Cc1cc(Nc2cc(N3CCN(C)CC3)nc(/C=C/c3ccccc3)n2)n[nH]1` [ENMD-2076], for which the Kd in [1] was > 30 µM (inactive); in [2], 1.49 µM (active); in [4], > 30 µM (inactive); in assay [5], > 30 µM (inactive); in assay [10] it was > 30 µM (inactive); in assay [6], > 30 µM (inactive). Further, the Kd in [11], in [12] and in assay [7] was > 30 µM (inactive) each time.
Consider `CCn1c(-c2nonc2N)nc2c(C#CC(C)(C)O)ncc(OC[C@H]3CCCNC3)c21` [GSK-690693], for which the Kd in assay [4] and in assay [6] was > 30 µM (inactive) each time.
On to `CCc1cnn2c(NCc3ccc[n+]([O-])c3)cc(N3CCCC[C@H]3CCO)nc12` [DINACICLIB], for which the Kd in assay [1] is > 30 µM (inactive); in assay [13], > 30 µM (inactive); in assay [2] it was > 30 µM (inactive); in assay [3], 0.714 µM (active); in assay [4], > 30 µM (inactive); in assay [5] it was > 30 µM (inactive). Moreover, the Kd was > 30 µM (inactive) in [10]; > 30 µM (inactive) in [6]; 1.47 µM (active) in assay [14]; > 30 µM (inactive) in [15]; > 30 µM (inactive) in [12]; > 30 µM (inactive) in [16]. For the same compound, the Kd in [7], in assay [8] and in assay [9] was > 30 µM (inactive) in each case.
Turning to `OCCn1cc(-c2cnc3nnn(Cc4ccc5ncccc5c4)c3n2)cn1` [PF-04217903], the Kd in assay [1], in assay [13], in assay [2], in [3], in assay [4] and in assay [5] was > 30 µM (inactive) each time. The Kd in assay [10], in assay [6], in assay [15], in assay [12], in assay [16] and in assay [7] was > 30 µM (inactive) throughout. The Kd in assay [8] and in assay [9] was > 30 µM (inactive) throughout.
On to `COC(=O)[C@@]1(O)C[C@H]2O[C@]1(C)n1c3ccccc3c3c4c(c5c6ccccc6n2c5c31)C(=O)NC4` [K-252A], for which the Kd in assay [1] was > 30 µM (inactive); in assay [13], > 30 µM (inactive); in assay [2], 0.09 µM (active); in [3] it was 0.01 µM (active); in [4], > 30 µM (inactive); in assay [5], > 30 µM (inactive). Besides, the Kd in [10], in [6], in assay [14], in assay [15], in [12] and in [16] was > 30 µM (inactive) each time. In addition, the Kd in assay [7] was > 30 µM (inactive); in [8], 2.18 µM (active); in assay [9] it was 0.481 µM (active).
Consider `Cn1cc(-c2ccc(F)c(C(F)(F)F)c2)nc1C1CCN(c2ncnc3[nH]ncc23)CC1` [LY-2584702], for which the Kd in assay [1], in assay [13], in assay [2], in assay [3], in assay [4] and in [5] was > 30 µM (inactive) each time. Besides, the Kd in assay [10], in assay [14], in assay [15], in [11], in assay [12] and in assay [16] was > 30 µM (inactive) throughout. The Kd in assay [7], in [8] and in assay [9] was > 30 µM (inactive) in each case.
`CC(=O)Nc1cccc(-n2c(=O)n(C3CC3)c(=O)c3c(Nc4ccc(I)cc4F)n(C)c(=O)c(C)c32)c1` [TRAMETINIB]: the Kd in assay [1], in assay [13], in [2], in assay [3], in assay [4] and in [5] was > 30 µM (inactive) in each case. The Kd in assay [10], in assay [6], in [14], in [15], in [12] and in assay [16] was > 30 µM (inactive) each time. The Kd in [7], in assay [8] and in assay [9] was > 30 µM (inactive) in each case.
Turning to `CNS(=O)(=O)Nc1nccc(Cc2c(C)c3ccc(Oc4ncccn4)cc3oc2=O)c1F` [AVUTOMETINIB], the Kd in [1], in assay [13], in [2], in assay [3], in [4] and in assay [5] was > 30 µM (inactive) throughout. In addition, the Kd in assay [10], in [6], in assay [14], in assay [15], in [12] and in assay [16] was > 30 µM (inactive) each time. In addition, the Kd in assay [7], in assay [8] and in assay [9] was > 30 µM (inactive) throughout.
